For this experiment, the target named is T1, fibrin gels (Homo sapiens, UniProt P02671+P02675+P02679).
T1 sequence (P02671 20-644 isoform P02671-2 limits assumed): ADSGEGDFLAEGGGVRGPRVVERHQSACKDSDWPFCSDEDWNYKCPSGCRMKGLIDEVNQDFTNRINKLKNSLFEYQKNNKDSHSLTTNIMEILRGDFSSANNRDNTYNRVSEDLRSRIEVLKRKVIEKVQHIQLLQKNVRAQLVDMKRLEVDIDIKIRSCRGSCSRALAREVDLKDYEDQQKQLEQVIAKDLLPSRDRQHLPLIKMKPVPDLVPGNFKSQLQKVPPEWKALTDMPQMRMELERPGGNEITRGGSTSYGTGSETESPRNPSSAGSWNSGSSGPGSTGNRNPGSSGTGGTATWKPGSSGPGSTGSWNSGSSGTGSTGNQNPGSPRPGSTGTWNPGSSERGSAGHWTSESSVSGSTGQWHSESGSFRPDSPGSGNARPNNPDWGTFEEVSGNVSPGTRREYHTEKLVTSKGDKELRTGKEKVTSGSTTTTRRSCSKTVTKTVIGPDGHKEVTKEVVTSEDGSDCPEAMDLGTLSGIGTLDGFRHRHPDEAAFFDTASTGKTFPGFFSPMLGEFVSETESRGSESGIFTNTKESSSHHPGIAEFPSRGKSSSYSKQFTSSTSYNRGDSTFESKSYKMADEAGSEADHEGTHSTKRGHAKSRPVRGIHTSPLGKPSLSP
T1 sequence (P02675 45-491 limits assumed): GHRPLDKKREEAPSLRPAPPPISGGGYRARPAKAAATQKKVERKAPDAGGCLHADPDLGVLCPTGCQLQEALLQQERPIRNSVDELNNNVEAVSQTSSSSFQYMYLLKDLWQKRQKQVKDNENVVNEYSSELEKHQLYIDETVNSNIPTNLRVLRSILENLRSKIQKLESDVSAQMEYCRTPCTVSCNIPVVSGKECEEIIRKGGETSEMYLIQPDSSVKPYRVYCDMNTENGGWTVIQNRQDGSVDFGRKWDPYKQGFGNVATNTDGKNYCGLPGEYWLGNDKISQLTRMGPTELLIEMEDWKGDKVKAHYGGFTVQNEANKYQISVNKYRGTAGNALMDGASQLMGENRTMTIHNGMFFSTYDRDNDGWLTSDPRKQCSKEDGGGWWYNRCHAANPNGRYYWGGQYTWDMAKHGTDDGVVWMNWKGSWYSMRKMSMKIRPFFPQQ
T1 sequence (P02679 27-437 isoform P02679-2 limits assumed): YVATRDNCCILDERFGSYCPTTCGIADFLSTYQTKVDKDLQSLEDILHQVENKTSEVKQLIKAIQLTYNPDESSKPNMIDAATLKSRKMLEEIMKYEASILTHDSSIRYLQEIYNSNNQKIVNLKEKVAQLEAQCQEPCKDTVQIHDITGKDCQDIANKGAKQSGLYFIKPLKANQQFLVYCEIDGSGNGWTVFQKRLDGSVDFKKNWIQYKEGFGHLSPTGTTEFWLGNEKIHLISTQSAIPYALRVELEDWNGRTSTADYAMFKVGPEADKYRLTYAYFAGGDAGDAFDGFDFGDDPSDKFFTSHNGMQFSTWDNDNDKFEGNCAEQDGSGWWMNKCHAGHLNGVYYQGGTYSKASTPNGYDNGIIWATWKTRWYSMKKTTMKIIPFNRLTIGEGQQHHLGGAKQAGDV
Briefly: Fibrin gel degradation with plasminogen and tissue plasminogen activator, thickness by OCT. The note with it: 1.6 U/mL plasminogen and 17,000 U/mL tPA in PBS, 37° C., gels with 0.12% dye, n=3. The procedure:
Fibrin gels were cast as described in the Electron Microscopy section above and hydrated in PBS. A punch was used to generate 5.0 mm×1.5 mm gels. The measured thickness of all the gels was 309±69 μm.
The fibrin gels were then submerged in a PBS solution with 1.6 U/mL plasminogen (Sigma-Aldrich; St Louis, MO) and 17,000 U/mL tissue plasminogen activator (Sigma-Aldrich) in a glass-bottom petri dish (Mattek) and incubated at 37° C. to initiate degradation as described elsewhere (see, e.g., Gandhi et al., 2018 Acta Biomater., 67:134-46). Fibrin gel thickness was monitored over time by imaging with an Envisu R2110 (Leica; Wetzlar, Germany) optical coherence tomograph (OCT) and quantified using the caliper tool within the accompanying InVivoVue software (Leica). Gel thickness was continually measured every 10 minutes until no physical evidence of the insoluble gel remained. The thickness of a gel was measured at 3 different locations (left, middle, right) on each cross-section. The measure at each location was normalized to its initial value and then averaged.
Fibrin gels produced using PBS, TB, or EB with a geometry of 1.5 mm wide×5.0 mm long×0.2 mm thick were generated. Gels were hydrated in PBS prior to incubation in a solution of tissue plasminogen activator (tPA) and plasminogen (P) at 37° C. […]

Take `Cc1cc(-c2ccc(/N=N/c3ccc4c(S(=O)(=O)O)cc(S(=O)(=O)O)c(N)c4c3O)c(C)c2)ccc1/N=N/c1ccc2c(S(=O)(=O)O)cc(S(=O)(=O)O)c(N)c2c1O` [EB, Evans Blue]: the degradation time worked out at 78 ± 37 min.
To `Cc1cc(-c2ccc(/N=N/c3c(S(=O)(=O)O)cc4cc(S(=O)(=O)O)cc(N)c4c3O)c(C)c2)ccc1/N=N/c1c(S(=O)(=O)O)cc2cc(S(=O)(=O)O)cc(N)c2c1O` [TB, Trypan Blue] belongs 33 ± 18 min.

The values are drawn from patent publication US20230414826A1, “FIBRIN HYDROGELS” (Mayo Foundation for Medical Education and Research, priority 2020, published 2023).
